Data taken from patent publication US20080139655A1, “SUSTAINED-RELEASE COMPOSITION AND METHOD OF USE THEREOF” (DrugTech Corporation, priority 2006, published 2008).

What was measured:
[1] = Dissolution testing of tablet formulations A and B (USP apparatus II with paddles, 50 rpm, 900 ml 0.1N HCl); assay type: physicochemical; settings: USP apparatus II paddles 50 rpm, typical range for both formulations
Method: Tablet formulations A and B prepared as above are subjected to dissolution testing for both levodopa and carbidopa (USP apparatus II with paddles, 50 rpm, dissolution medium 900 ml 0.1N HCl) over a 12 hour period.

[2] = approximately; background statement; cited from earlier work

| SMILES | % Dissolved ([1]; time 1 h) | % Dissolved ([1]; time 2 h) | % Dissolved ([1]; time 4 h) | % Dissolved ([1]; time 8 h) | % Dissolved ([1]; time 12 h) | half-life [2] |
| --- | --- | --- | --- | --- | --- | --- |
| C[C@@](Cc1ccc(O)c(O)c1)(NN)C(=O)O [carbidopa] | 15-25% | 25-40% | 40-70% | 65-80% | 80-95% |  |
| N[C@@H](Cc1ccc(O)c(O)c1)C(=O)O [levodopa, 3,4-dihydroxy-L-phenylalanine] | 15-25% | 25-40% | 40-70% | 65-80% | 80-95% | 45 to 90 min |
